Measured values published in patent publication US10870647B2, “Imidazopyridine derivative, method for preparing same, and pharmaceutical composition containing same as active ingredient for preventing or treating cancer” (DAEGU-GYEONGBUK MEDICAL INNOVATION FOUNDATION, priority 2016, dated 2020).

Assays:
Assay in all cases: Kinase selectivity, scanMAX Kinase assay panel (DiscoverX), % control at 1 uM
Assay type in all cases: binding
[1] = molecular target: T1, scanMAX Kinase assay panel (Homo sapiens, UniProt O60674); settings: JAK2 (JH1domain-catalytic); 1 uM; read-out: Percent Control (%)
T1 construct: purchased DiscoverX
T1 sequence (O60674 whole entry): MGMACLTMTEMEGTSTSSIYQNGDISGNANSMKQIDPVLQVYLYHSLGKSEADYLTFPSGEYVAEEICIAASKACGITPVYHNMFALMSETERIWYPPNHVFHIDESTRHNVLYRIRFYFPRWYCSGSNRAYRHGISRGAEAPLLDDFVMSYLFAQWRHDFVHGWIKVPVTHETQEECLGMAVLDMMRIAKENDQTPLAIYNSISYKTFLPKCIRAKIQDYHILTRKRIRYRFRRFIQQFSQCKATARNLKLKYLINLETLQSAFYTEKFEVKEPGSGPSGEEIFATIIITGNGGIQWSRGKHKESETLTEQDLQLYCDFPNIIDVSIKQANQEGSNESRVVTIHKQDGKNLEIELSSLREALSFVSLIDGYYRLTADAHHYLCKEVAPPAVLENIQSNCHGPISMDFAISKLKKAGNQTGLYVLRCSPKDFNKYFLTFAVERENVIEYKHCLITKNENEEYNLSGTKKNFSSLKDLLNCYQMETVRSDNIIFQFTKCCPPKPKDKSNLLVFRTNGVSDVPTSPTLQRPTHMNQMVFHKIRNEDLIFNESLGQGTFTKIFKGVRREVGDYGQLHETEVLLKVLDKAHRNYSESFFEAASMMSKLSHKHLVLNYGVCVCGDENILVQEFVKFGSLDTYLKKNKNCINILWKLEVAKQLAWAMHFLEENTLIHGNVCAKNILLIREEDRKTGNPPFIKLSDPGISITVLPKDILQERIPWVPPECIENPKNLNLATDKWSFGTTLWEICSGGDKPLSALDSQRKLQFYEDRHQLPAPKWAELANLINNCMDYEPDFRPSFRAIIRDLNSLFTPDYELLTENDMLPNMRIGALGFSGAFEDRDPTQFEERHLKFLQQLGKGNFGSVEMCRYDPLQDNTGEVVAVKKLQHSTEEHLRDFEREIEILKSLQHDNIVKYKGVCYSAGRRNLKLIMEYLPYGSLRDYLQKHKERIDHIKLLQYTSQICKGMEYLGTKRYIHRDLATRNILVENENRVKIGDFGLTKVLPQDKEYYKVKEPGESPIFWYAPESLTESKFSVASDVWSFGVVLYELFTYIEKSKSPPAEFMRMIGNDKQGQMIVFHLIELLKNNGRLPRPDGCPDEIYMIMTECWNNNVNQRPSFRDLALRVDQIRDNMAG
Outline: (§1)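 Activity was called for kinases showing % control under 35, calculated from compound signal relative to positive and negative controls. Each compound screened at 1 uM against the DiscoverX scanMAX panel.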

[2] = molecular target: T2, scanMAX Kinase assay panel (Homo sapiens, UniProt Q8IWQ3); settings: BRSK2; 1 uM; read-out: Percent Control (%)
T2 construct: purchased DiscoverX
T2 sequence (Q8IWQ3 1-736): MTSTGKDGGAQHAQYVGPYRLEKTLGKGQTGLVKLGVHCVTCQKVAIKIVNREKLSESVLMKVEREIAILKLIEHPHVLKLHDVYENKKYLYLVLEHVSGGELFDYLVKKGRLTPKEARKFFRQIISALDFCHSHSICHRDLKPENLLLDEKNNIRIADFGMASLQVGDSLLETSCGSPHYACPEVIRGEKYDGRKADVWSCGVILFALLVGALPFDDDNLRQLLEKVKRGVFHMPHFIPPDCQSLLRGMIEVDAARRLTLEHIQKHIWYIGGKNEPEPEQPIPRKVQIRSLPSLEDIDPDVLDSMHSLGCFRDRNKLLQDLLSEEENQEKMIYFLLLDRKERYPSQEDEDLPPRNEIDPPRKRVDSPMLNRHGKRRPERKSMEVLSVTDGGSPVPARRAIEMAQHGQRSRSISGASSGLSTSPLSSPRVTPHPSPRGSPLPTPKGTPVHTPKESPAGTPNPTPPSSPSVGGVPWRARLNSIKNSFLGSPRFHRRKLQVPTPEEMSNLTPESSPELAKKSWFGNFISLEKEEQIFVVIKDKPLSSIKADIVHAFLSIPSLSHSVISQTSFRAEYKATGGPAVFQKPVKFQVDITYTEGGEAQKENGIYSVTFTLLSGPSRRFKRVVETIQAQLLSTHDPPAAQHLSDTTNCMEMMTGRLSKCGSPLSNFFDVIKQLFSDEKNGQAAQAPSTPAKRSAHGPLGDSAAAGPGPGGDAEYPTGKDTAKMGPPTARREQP
Outline: as §1

[3] = molecular target: T3, scanMAX Kinase assay panel (Homo sapiens, UniProt O14976); settings: GAK; 1 uM; read-out: Percent Control (%)
T3 construct: purchased DiscoverX
T3 sequence (O14976 1-1311): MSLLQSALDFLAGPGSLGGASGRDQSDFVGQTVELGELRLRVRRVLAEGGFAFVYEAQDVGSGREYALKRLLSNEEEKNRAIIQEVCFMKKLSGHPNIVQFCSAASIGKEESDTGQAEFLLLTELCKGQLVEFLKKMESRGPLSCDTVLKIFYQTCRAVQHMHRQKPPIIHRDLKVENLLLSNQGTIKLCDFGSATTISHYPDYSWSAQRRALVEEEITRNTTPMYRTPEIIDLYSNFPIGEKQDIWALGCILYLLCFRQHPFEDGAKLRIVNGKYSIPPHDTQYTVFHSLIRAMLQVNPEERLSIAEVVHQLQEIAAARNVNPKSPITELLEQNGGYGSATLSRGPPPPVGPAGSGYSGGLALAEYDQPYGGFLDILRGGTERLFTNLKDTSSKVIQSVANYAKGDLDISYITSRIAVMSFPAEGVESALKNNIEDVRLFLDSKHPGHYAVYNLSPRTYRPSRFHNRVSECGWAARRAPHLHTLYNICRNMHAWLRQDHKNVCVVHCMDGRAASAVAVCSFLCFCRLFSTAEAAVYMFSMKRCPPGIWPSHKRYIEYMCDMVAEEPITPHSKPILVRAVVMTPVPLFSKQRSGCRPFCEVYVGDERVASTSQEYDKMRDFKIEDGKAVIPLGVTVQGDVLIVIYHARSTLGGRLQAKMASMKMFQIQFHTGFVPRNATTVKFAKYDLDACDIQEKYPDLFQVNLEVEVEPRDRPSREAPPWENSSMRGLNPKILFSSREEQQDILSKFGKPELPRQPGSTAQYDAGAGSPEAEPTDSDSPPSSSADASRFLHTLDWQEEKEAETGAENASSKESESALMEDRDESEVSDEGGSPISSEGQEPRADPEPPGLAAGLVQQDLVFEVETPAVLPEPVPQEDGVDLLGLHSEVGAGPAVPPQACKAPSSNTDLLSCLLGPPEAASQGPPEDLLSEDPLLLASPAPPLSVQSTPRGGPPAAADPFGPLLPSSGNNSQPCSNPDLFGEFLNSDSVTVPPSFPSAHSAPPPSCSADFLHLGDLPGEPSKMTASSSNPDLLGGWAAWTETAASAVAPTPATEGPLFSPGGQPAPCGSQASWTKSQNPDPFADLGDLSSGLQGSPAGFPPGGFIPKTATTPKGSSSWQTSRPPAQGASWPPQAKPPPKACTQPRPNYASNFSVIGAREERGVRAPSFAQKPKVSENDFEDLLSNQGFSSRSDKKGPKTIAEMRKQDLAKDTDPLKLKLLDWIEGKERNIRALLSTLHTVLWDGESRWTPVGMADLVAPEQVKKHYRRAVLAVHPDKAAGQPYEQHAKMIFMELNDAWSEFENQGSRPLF
Outline: as §1

Question: Which results are given for `Cc1ccc(C(=O)Nc2ccc(CN3CCN(C)CC3)c(C(F)(F)F)c2)cc1C#Cc1cnc2c(Nc3cnn(C)c3)cccn12` [Example 1, 4-methyl-3-((8-((1-methyl-1H-pyrazol-4-yl)amino)imidazo[1,2-a]pyridin-3-yl)ethynyl)-N-(4-((4-methylpiperazin-1-yl)methyl)-3-(trifluoromethyl)phenyl)benzamide]?
Answer: remaining binding at 1 µM [1]: 7%; remaining binding at 1 µM [2]: 96%; remaining binding at 1 µM [3]: 7%

Question: Which results are given for `Cc1cn(-c2cc(NC(=O)c3ccc(C)c(C#Cc4cnc5c(Nc6cnn(C)c6)cccn45)c3)cc(C(F)(F)F)c2)cn1` [Example 12, 4-methyl-N-(3-(4-methyl-1H-imidazol-1-yl)-5-(trifluoromethyl)phenyl)-3-((8-((1-methyl-1H-pyrazol-4-yl)amino)imidazo[1,2-a]pyridin-3-yl)ethynyl)benzamide]?
Answer: remaining binding at 1 µM [1]: 100%; remaining binding at 1 µM [2]: 87%; remaining binding at 1 µM [3]: 87%

Question: Which results are given for `Cc1ccc(NC(=O)C2(C(=O)Nc3ccc(F)cc3)CC2)cc1C#Cc1cnc2c(Nc3cnn(C(C)C)c3)cccn12` [Example 78]?
Answer: remaining binding at 1 µM [1]: 98%; remaining binding at 1 µM [2]: 100%; remaining binding at 1 µM [3]: 100%
